In patent publication US20250032489A1, “MIXED LINEAGE KINASE INHIBITORS AND METHODS OF USE” (The U.S.A., as represented by the Secretary, Department of …, priority 2022, published 2025):
Where two headings read alike, the source gives them in different places.

How the values were obtained:
[1] = tested on: 3q-amplified HNSCC PDX tumors; assay: HNSCC PDX mouse model with amplified MAP3K13 (LZK); assay type: in vivo
Procedure: Tumor pieces at approximately 2×2×2 mm^3 from an HNSCC patient containing amplified MAP3K13 were implanted subcutaneously with Matrigel (Corning) in the mice according to the SOP50101 Implantation and Cryopreservation of Tissue for PDX Generation protocol from the NIH Patient-Derived Models Repository (PDMR). Five NSG mice were used for initial implantation of the cryopreserved tumor fragments. Body weights and tumor size were measured twice weekly. […] For the efficacy study, passage one of the fresh PDX tumor fragments were implanted into NSG mice using the protocol stated previously. […] Body weights and tumor sizes were measured twice weekly. At the endpoint of each study, tumors were harvested, cleaned, weighed, and photographed for analysis.

[2] = tested on: BEAS-2B cells; assay: Colony formation assay; assay type: cell-based, human; details: 200 nM, 14 days, cells lacking amplified MAP3K13
Procedure: (§1) Crystal violet assays were used to assess relative cell growth and survival after treatment with specific compounds. In general, cells were plated in triplicate in 12-well plates for 24 hours before drug treatments were added using 10% FBS media. The plates were incubated for 14 days, with the media and drug being replaced every 48 hours. The cells were then washed with phosphate-buffered saline and fixed in ice-cold methanol before being stained with 0.5% crystal violet (Sigma-Aldrich) in 25% methanol. Images were taken using a ChemiDoc MP Imaging System (Bio Rad), and for quantification, the crystal violet stain was dissolved in 33% acetic acid, incubated for 20 minutes with shaking, and read at 595 nm using iMark™ Microplate Absorbance Reader (Bio-Rad). Graphs display percent colony formation relative to the DMSO-treated control sample.

[3] = tested on: CAL33 xenografts; assay: HNSCC CAL33 xenograft mouse model; details: 100 mg/kg
[4] = molecular target: T1, LZK (Homo sapiens (Human), UniProt O43283); assay: Immunoblot of downstream JNK phosphorylation in CAL33 cells with dox-inducible LZK; assay type: cell-based
T1 sequence (O43283 whole entry): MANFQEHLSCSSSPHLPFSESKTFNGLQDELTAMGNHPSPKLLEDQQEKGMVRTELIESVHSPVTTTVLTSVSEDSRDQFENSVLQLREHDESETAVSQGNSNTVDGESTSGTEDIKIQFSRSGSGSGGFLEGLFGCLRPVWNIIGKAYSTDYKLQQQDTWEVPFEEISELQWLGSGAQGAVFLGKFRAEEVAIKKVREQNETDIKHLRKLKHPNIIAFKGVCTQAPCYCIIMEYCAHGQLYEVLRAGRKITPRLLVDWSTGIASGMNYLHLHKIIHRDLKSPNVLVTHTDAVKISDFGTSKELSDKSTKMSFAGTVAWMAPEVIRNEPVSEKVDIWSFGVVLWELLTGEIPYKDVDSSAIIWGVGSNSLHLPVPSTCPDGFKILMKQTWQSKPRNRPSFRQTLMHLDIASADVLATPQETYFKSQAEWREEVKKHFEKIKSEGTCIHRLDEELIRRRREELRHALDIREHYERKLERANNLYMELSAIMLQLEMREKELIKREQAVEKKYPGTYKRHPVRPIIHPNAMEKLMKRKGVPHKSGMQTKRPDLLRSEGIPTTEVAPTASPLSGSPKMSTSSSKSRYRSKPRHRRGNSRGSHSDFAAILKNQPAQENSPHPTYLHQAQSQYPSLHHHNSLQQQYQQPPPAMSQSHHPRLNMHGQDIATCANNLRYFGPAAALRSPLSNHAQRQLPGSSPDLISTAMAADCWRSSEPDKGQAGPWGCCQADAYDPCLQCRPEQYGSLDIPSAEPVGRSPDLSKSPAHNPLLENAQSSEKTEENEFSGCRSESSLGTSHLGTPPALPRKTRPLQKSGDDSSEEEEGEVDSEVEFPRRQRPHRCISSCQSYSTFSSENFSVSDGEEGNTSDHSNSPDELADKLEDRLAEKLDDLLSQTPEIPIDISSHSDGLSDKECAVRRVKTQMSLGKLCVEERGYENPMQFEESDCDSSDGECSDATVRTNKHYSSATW
Procedure: (§2) The ViraPower HiPerform T-REx Gateway Expression System (Invitrogen) was used to generate cells with tetracycline-inducible expression of LZK. […] Cell lines were generated by antibiotic selection (blasticidin [Gibco] and geneticin [Gibco]). Doxycycline (Sigma-Aldrich) was used at 1 μg/mL to induce LZK expression.
(§3) After appropriate treatment time, cells were washed with ice-cold phosphate-buffered saline without Ca and Mg (Quality Biological) and then lysed on ice with RIPA buffer ([…], 1.0% IGEPAL® CA-630, 0.5% sodium deoxycholate, 0.1% SDS, 50 mM Tris, pH 8.0) (Sigma-Aldrich) supplemented with protease inhibitor tablet (Sigma-Aldrich) and phosphatase inhibitor cocktails 2 and 3 (Sigma-Aldrich) followed by centrifugation at 15,000 rpm for 10 minutes at 4° C. Protein concentrations were determined from the cell lysate by using 660 nm Protein Assay Reagent (Pierce). Cell extracts were denatured, subjected to SDS-PAGE, transferred to PVDF membranes (Bio-Rad) and blocked for 2 hours using 5% bovine serum albumin (BSA) in phosphate-buffered saline and 0.1% Tween® 20 (PBS-T). The membranes were incubated with the specific antibodies overnight in 5% BSA/PBST at 4° C. followed by a 1 hour incubation with the appropriate horseradish peroxidase-conjugated secondary antibodies and signal was detected by chemiluminescence (Thermo Fisher).

[5] = molecular target: LZK (Homo sapiens, UniProt O43283, Q240S); assay: as above; assay type: cell-based; details: in the presence of inhibitor
LZK (Homo sapiens, UniProt O43283, Q240S), sequence (O43283 whole entry Q240S): as the sequence (O43283 whole entry) above, with Q240S counted along it
Procedure: as §2, §3

[6] = tested on: LZK; assay: Immunoblot of JNK signaling in 293T cells overexpressing LZK; assay type: cell-based; details: one-hour treatment
Procedure: LZK cDNA was prepared from RNA extracted from 293T cells, attB flanking regions were added by PCR, and the BP Clonase reaction was used to insert LZK into pDONR221. From here, the Invitrogen Gateway system was used for cloning into destination vectors. FLAG-tagged (pReceiver-M12, GeneCopoeia) destination vector was conveed into Gateway destination vector for use in transient overexpression assays. The pLenti6.3/TO/V5-DEST vector was used to generate stable overexpression. The drug-resistant construct for LZK was a Q240S mutation that was introduced using a Site-Directed Mutagenesis Kit (Stratagene). The oligonucleotides are listed below in Table 18. 293T cells were transiently transfected using Lipofectamine 2000 (Invitrogen), according to the manufacturer's protocol, with OptiMEM (Gibco). […]
Generally, cells were plated in six-well or 35-mm plates for 24 hours, after which doxycycline was added or treatment with specific inhibitor was administered using 5% FBS media for 48 hours. […] Protein concentrations were determined from the cell lysate by using 660 nm Protein Assay Reagent (Pierce). […] The membranes were incubated with the specific antibodies overnight in 5% BSA/PBST at 4° C. followed by a 1 hour incubation with the appropriate horseradish peroxidase-conjugated secondary antibodies and signal was detected by chemiluminescence (Thermo Fisher).

[7] = molecular target: T1, LZK; assay: In vitro kinase assay, LZK phosphorylation of MKK7; assay type: biochemical
Procedure: The assay was performed with 100 μM ATP at 37° C. for 30 minutes. Following the addition of 4× reducing SDS sample buffer, proteins were resolved by sodium dodecyl sulfate-polyacrylamide gel electrophoresis (SDS-PAGE) and immunoblot analysis was performed as stated previously.

[8] = tested on: HNSCC PDX tumors lacking amplified LZK; assay: HNSCC PDX mouse models that lack amplified LZK; assay type: in vivo; details: 50 mg/kg, q.d., five days on/two days off
[9] = tested on: c-MYC; assay: Western blot of c-MYC abundance; assay type: cell-based
Procedure: as §3, with “Generally, cells were plated in six-well or 35-mm plates for 24 hours, after which doxycycline was added or treatment with specific inhibitor was administered using 5% FBS media for 48 hours. After” for “After”

[10] = tested on: BICR56 cells; assay: MTS cell viability assay; assay type: cell-based; details: 72 hours MTS
Procedure: A Cell Titer 96 AQueous One Solution Cell Proliferation Assay (Promega) was used for MTS assays following the manufacturer's protocol. […] MTS was added, cells were incubated for two hours, and absorbance was measured at 490 nm using iMark™ Microplate Absorbance Reader (Bio-Rad). Graphs display percent cell viability relative to the DMSO-treated control sample. EC50 values were determined using GraphPad Prism 8.

[11] = tested on: MSK921 cells; assay: Colony formation assay; assay type: cell-based; details: 200 nM, 14 days, cells lacking amplified MAP3K13
Procedure: as §1

[12] = tested on: NCI-H520 cells; assay: Colony formation assay; assay type: cell-based; details: 500 nM
Procedure: as §1

[13] = tested on: LK2 cells; assay: Colony formation assay; assay type: cell-based; details: 500 nM
Procedure: as §1

[14] = tested on: BICR56 cells; assay: Colony formation assay; assay type: cell-based; details: 200 nM, 14 days
Procedure: as §1

[15] = tested on: CAL33 cells; assay: Colony formation assay; assay type: cell-based; details: 200 nM, 14 days
Procedure: as §1

[16] = tested on: ESCC with the 3q amplicon (KYSE30, and KYSE70 cells); assay: MTS assay in ESCC cells; assay type: cell-based; details: compared to control ESCC cells lacking amplified LZK (KYSE410 and OE19)
Procedure: A Cell Titer 96 AQueous One Solution Cell Proliferation Assay (Promega) was used for MTS assays following the manufacturer's protocol. […] Doxycycline was added where appropriate, and cells were incubated for 72 hours. MTS was added, cells were incubated for two hours, and absorbance was measured at 490 nm using iMark™ Microplate Absorbance Reader (Bio-Rad). Graphs display percent cell viability relative to the DMSO-treated control sample. EC50 values were determined using GraphPad Prism 8.

[17] = tested on: ESCC cells with the 3q amplicon; assay: Colony formation assay in ESCC cells; assay type: cell-based; details: drug resistant mutant form of LZK
Source text: Crystal violet assays were used to assess relative cell growth and survival after treatment with specific compounds. […] Graphs display percent colony formation relative to the DMSO-treated control sample.

[18] = tested on: OVCAR5 cells; assay: Colony formation assay; assay type: cell-based
Procedure: as §1

[19] = molecular target: T1, LZK; assay: KD determination, Eurofins DiscoveRx Kd-Elect; assay type: binding
Procedure: (§4) Substituents were varied to improve binding affinity to LZK and selectivity over DLK. KD values were measured by Eurofins DiscoveRx using the Kd-Elect system. Parallel artificial membrane permeability assay (PAMPA) values were measured by Cyprotex.
(§5) KD values were calculated with a standard dose-response curve using the Hill equation: […]
(§6) The Hill Slope was set to −1. Curves were fitted using a non-linear least square fit with the Levenberg-Marquardt algorithm.

[20] = molecular target: DLK (Homo sapiens (Human), UniProt Q12852); assay: KD determination, Eurofins DiscoveRx Kd-Elect; assay type: binding
DLK, sequence (Q12852 whole entry): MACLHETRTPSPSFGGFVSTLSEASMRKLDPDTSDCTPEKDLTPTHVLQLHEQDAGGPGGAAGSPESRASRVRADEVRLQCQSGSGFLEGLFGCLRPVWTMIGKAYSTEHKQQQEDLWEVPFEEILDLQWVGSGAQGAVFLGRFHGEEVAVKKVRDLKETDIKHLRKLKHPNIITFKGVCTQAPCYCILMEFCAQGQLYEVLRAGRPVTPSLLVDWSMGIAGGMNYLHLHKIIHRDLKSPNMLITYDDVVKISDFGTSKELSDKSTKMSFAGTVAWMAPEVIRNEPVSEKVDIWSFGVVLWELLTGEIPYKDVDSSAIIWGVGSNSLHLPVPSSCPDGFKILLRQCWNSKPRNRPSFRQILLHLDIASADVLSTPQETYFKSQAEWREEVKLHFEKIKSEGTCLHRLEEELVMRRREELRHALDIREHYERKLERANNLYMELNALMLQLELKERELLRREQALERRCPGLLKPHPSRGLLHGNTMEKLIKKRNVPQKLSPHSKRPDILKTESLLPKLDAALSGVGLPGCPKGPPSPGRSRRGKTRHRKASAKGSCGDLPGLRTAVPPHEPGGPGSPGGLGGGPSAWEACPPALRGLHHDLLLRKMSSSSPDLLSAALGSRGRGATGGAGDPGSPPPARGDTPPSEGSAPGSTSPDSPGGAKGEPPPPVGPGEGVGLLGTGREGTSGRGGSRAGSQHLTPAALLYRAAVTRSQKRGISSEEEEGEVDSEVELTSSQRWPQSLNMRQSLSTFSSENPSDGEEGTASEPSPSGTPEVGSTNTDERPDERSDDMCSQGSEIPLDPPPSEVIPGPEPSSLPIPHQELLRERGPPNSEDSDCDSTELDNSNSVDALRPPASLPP
Procedure: as §4, §5, §6

[21] = molecular target: T1, LZK; assay: Phospho-JNK ELISA in doxycycline-induced CAL33 cells expressing LZK; assay type: cell-based
Source text: The ViraPower HiPerform T-REx Gateway Expression System (Invitrogen) was used to generate cells with tetracycline-inducible expression of LZK. In brief, wild-type (WT) or drug-resistant mutant (Q240S) LZK (cloned into pLenti6.3/TO/V5-DEST vector) and pLenti3.3/TR (for tetracycline repressor expression) were transfected into 293FT cells using Lipofectamine 2000 to generate lentiviral stock. Cell lines were generated by antibiotic selection (blasticidin [Gibco] and geneticin [Gibco]). Doxycycline (Sigma-Aldrich) was used at 1 μg/mL to induce LZK expression.
A PathScan® Phospho-SAPK/JNK (Thr183/Tyr185) Sandwich ELISA Assay (Cell Signaling Technology) was used for ELISA assays following the manufacturer's protocol. In general, 500,000 cells were plated and treated with doxycycline the following day where appropriate and incubated at 37° C. for 48 hours. Cells were treated with the drug compound or control in 5% FBS media for 1 hour. After appropriate treatment time, cells were lysed on ice with 1× Cell Lysis Buffer (Cell Signaling Technology) supplemented with phosphatase and protease inhibitors (Sigma). Each diluted cell lysate was added to Phospho-SAPK/JNK (Thr183/Tyr185)Rabbit mAb Coated microwells in triplicate and incubated overnight at 4° C. Samples were treated with the following antibodies and incubated at 37° C. for 1 hour and 30 minutes, respectively: Detection Antibody and HRP-Linked secondary antibody. Samples were washed between treatments using 1× Wash Buffer according to the manufacturer's protocol. TMB substrate was added to each well and incubated at 37° C. for 10 minutes. Following this, STOPsolution was added to each well and absorbance was measured at 450 nm using iMark™ Microplate Absorbance Reader (Bio-Rad). Graphs display relative phospho-JNK levels.

[22] = b.i.d., five days on/two days off

N#Cc1ccnc(Nc2cc(C3CCN(C4COC4)CC3)cc(N3CCC(F)(F)C3)n2)c1 [GNE-3511]
body weights of the mice ([1]; 50 mg/kg daily): no effect on body weights | mice with no detectable tumors ([1]; 50 mg/kg, n=10): 3 mice | tumor growth ([1]; 50 mg/kg, q.d., five days on/two days off): significantly suppress HNSCC tumor growth in vivo with almost complete tumor regression | reduction in colony formation [2]: minor reduction in colony formation | cleaved caspase-3 expression (IHC) in tumors [3]: increase in cleaved caspase-3 expression | tumor growth [3]: tumor growth was suppressed | body weight [3, 22]: decreases in body weight | toxicity [3, 22]: terminated early due to toxicity | duration of JNK pathway inactivation ([4]; 250 nM): up to 72 hours | time at which LZK activity toward JNK was inhibited ([4]; 250 nM): ≤ 15 min | inhibition of LZK activity in cells (downstream JNK phosphorylation) ([4]; Western blot): potent LZK inhibitor in cells | JNK signaling with LZK^Q240S drug-resistant mutant expression [5]: maintained catalytic activity | specificity of LZK inhibition (rescue of JNK signaling by LZK^Q240S) [6]: specifically inhibits LZK | in vitro phosphorylation of MKK7 [7]: decreased in vitro phosphorylation of MKK7 | tumor volumes [8]: no decrease in tumor volumes | c-MYC levels with LZK^Q240S expression ([9]; CAL33 cells treated with inhibitor): rescued loss in c-MYC levels | c-MYC levels ([9]; CAL33 cells, 500 nM, within the first hour, maintained for 72 hours): reduction in c-MYC levels | IC50 [10]: 410 ± 59.6 nM | reduction in colony formation [11]: minor reduction in colony formation | reduction in colony formation [12]: 55% | reduction in colony formation [13]: 45% | reduction in colony formation [14]: ≥ 80% | reduction in colony formation [15]: ≥ 80% | sensitivity (viability) [16]: sensitive

Cc1cnc(Nc2cc(C3CCN(CC4CC4)CC3)cc(N3CCC(F)(F)C3)n2)cn1 [compound 161]
sensitivity (colony formation) of ESCC cells expressing LZK^Q240S [17]: resistant to compound 161 | sensitivity (colony formation) [18]: sensitive | Ratio (LZK/DLK) ([19]; ratio of LZK Kd to DLK Kd): 0.8 | Kd ([19]; read-out: Kd values): 3.3 nM | Kd ([19]; read-out: LZK KD): 3.3 nM | Kd [20]: 4.3 nM | dose-dependent inhibition of LZK [21]: dose-dependent inhibition
